Consider three molecules from ChEMBL document CHEMBL1124539, “17-Desoxy estrogen analogues” (J Med Chem, 1989).

The structures appear in SMILES notation. Values after ≈ are worked out from the molar mass of the structure shown.

The target in experiment [1] is T1, Estrogen receptor (Rattus norvegicus) (UniProt P06211+Q62986).
The species entered for experiment [2] is Rattus norvegicus.
Experiment [3] deals with T1, Estrogen receptor (Rattus norvegicus). The experiment in a line: In vivo uterotrophic effect in immature rats. The format is functional, organism-based.
Experiment [4] has as its target T2, Estrogen receptor (Homo sapiens, UniProt Q92731+P03372). Conditions: Macaca mulatta.
For experiment [5], the target named is T1, Estrogen receptor (Rattus norvegicus). This is another data set of the same source.
For experiment [6], the target named is T2, Estrogen receptor. The experiment in a line: Displacement of [3H]estradiol from estrogen receptor in immature rabbit. The format is protein assay, Oryctolagus cuniculus. The following applies: target entry is the homologue from another species. (In general: Loss of bound radioactivity is the signal in a displacement assay; it reports binding, not function.)

In experiment [7] the target is T1, Estrogen receptor (Rattus norvegicus). The source holds these as a separate data set.
The target in experiment [8] is T3, Estrogen receptor (Rattus norvegicus, UniProt P06211+Q62986).
In experiment [9] the target is T3, Estrogen receptor. This is another data set of the same source.
The test system of experiment [10] is Rattus norvegicus. The experiment in a line: In vivo […] activity in rats. It is filed as functional.
In experiment [11] the target is T2, Estrogen receptor. As to the kind of experiment: Displacement of [3H]estradiol from estrogen receptor in squirrel monkey. The format is protein assay.
Experiment [12] addresses T3, Estrogen receptor. As to the kind of experiment: Displacement of [3H]estradiol from estrogen receptor in immature rat. The format is protein assay.
Experiment [13] concerns Rattus norvegicus. The experiment in a line: In vivo anti-fertility activity in rat. The format is functional.
Experiment [14] concerns the target T3, Estrogen receptor. The experiment in a line: Displacement of [3H]estradiol from estrogen receptor in mature rat. It is filed as protein assay.
Experiment [15] can be described thus: Selectivity ratio for antifertility and estrogenic potencies in rats. It is filed as functional.

As for `C#C[C@]1(O)CC[C@H]2[C@@H]3CCc4cc(O)ccc4[C@H]3[C@@H](O)C[C@@]21C`, the figures for the Uterotrophic effect in experiment [1] and in experiment [7] were 5 and 19, respectively. This molecule also registered an Antifertility potency in experiment [2] of 200. The values for the Infertility activity in [3] and in [10] were 150 and 100, respectively. The Estrogenic effect in experiment [4] turned out to be 500. The molecule further showed an Estrogenic potency in experiment [5] of 120. Also, the concentration for a half-maximal effect (EC50) (in general, the midpoint of the concentration-response curve) turned out to be 8 µg/mL (≈ 25.6 µM) in experiment [6], 5.2 µg/mL (≈ 16.6 µM) in experiment [8], 16 µg/mL (≈ 51.2 µM) in experiment [9] and 150 µg/mL (≈ 480 µM) in experiment [11].
On to `C#C[C@]1(O)CC[C@H]2[C@@H]3[C@H](O)Cc4cc(O)ccc4[C@H]3CC[C@@]21C`, for which the EC50 came to 18 µg/mL (≈ 57.6 µM) in experiment [12], 6 µg/mL (≈ 19.2 µM) in [14], 36 µg/mL (≈ 115 µM) in experiment [6] and 52 µg/mL (≈ 166 µM) in experiment [11]. The Uterotrophic effect amounted to 0.1 in experiment [1] and 10 in experiment [7]. The Antifertility potency in experiment [2] turned out to be 66. The same molecule came in with an Antifertility activity in [13] of 66. Further, the Estrogenic effect in experiment [4] turned out to be 100. Further, the Estrogenic potency in experiment [5] was found to be 0.3.
For `C=C1CC[C@H]2[C@@H]3CCc4cc(O)ccc4[C@H]3CC[C@]12C`, the Antifertility potency in experiment [2] came to 40. In addition, the EC50 came out at 0.8 µg/mL (≈ 2.98 µM) in experiment [14] and 1.5 µg/mL (≈ 5.59 µM) in [6]. For the same molecule, the Estrogenic potency in [5] is 0.5; in experiment [5] (tested as the 2H-labelled form) it was 0.65. In addition, the Ratio in experiment [15] was found to be 80.
